How the values were obtained:
Type in all cases: cell-based
[1] = system: L. sativa cultivar Romaine (LR) leaf explants; experiment: Direct shoot regeneration from leaf explants, cultivar Romaine (LR)
Description: (§1) Seeds of L. sativa cultivars (New England Seed Co., Hartford, Conn.) were disinfected in a solution of 30% commercial bleach with 0.01%, Tween-20 for 5 min, rinsed five times in sterile water and placed on half strength Murashige and Skoog (MS; Murashige and Skoog, 1962) medium solidified with 0.6% Phytablend® (Caisson, N. Logan, Utah). After 21 days, fully expanded first leaves were dissected into 0.8 cm^2 and placed adaxial side on the medium. The culture medium was composed of MS basal salts, 3% sucrose and 0.6% Phytablend. Plant growth regulators were added to the medium as shown in table 1 and pH was adjusted to 5.8 prior autoclaving. Cultures were maintained at 26±2° C. at 40 μE m^2 s^−1 photon density; 16 hrs light/8 hrs dark.

[2] = system: L. sativa cultivar Simpson Elite (LS) leaf explants; experiment: Direct shoot regeneration from leaf explants, cultivar Simpson Elite (LS)
Description: as §1

[3] = system: L. sativa cultivar Evola (LE) leaf explants; experiment: Direct shoot regeneration from leaf explants, cultivar Evola (LE)
Description: as §1

[4] = system: L. sativa cultivar Great Lake (LG) leaf explants; experiment: Direct shoot regeneration from leaf explants, cultivar Great Lake (LG)
Description: as §1

[5] = system: L. sativa cultivar Lentissima (LL) leaf explants; experiment: Direct shoot regeneration from leaf explants, cultivar Lentissima (LL)
Description: as §1

Measured: EFF: Number of regenerated shoots/total explants

O=C(O)Cc1cccc2ccccc12 [NAA]
0: [1]; NAA 0.1 μg ml^−1 alone | [2]; NAA 0.1 μg ml^−1 alone | [3]; NAA 0.1 μg ml^−1 alone | [4]; NAA 0.1 μg ml^−1 alone | [5]; NAA 0.1 μg ml^−1 alone

c1ccc(CNc2ncnc3[nH]cnc23)cc1 [BAP]
0: [1]; BAP 0.1 μg ml^−1 alone | [2]; BAP 0.1 μg ml^−1 alone | [3]; BAP 0.1 μg ml^−1 alone | [4]; BAP 0.1 μg ml^−1 alone | [5]; BAP 0.1 μg ml^−1 alone

— patent publication US20100325756A1, “PLASTID TRANSFORMATION UTILIZING ENDOGENOUS REGULATORY ELEMENTS” (priority 2009, published 2010)
